Results: patent US20050153381A1, “Immunocapture of mitochondrial protein complexes” (priority 2002, published 2005)

How the values were obtained:
Complex IV = Complex IV (Bos taurus, UniProt P00396)
Description: (§1) Mitochondria (human heart, human fibroblast or bovine heart) were solubilized at 5 mg/ml mitochondrial protein, 1% wt/vol lauryl maltoside, 100 mM NaCl, 25 mM HEPES pH 7.5, and the protease inhibitors pepstatin (0.5 μg/ml), leupeptin (0.5 μg/ml) and PMSF (1 mM). The samples were incubated at 4° C. for 30 minutes and the insoluble material removed by centrifugation at 16,000×g for 20 minutes. Solubilized mitochondria were diluted to the desired concentration in 150 mM NaCl, 50 mM Tris-HCl, pH 7.5 containing 2.5% bovine serum albumin as a blocking and stabilization agent.
(§2) After the entire sample wicked up into the nitrocellulose (approximately 15 minutes), the stick was transferred to a second well containing 50 μl of wash buffer (150 mM NaCl, 50 mM Tris-HCl, pH 7.5), which was allowed to wick up the stick (approximately 15 minutes). The absorbent pad was then removed and the entire dipstick incubated in a tube containing 3 ml wash buffer for approximately 15 minutes. The washed dipstick (with the immunocaptured OXPHOS complex of interest) was then transferred to the appropriate enzyme reaction buffer to reveal enzyme activity as described below.
Complex IV. The Complex IV reaction buffer solution contained 0.5 mg/ml 3,3′ diaminobenzidine-tetrachloride (DAB) and 0.1 mM reduced cytochrome c in PBS, pH 7.4. […]

[1] = system: Complex I (NADH:UQ1 oxidoreductase); test: Immunocaptured Complex I NADH:UQ1 oxidoreductase microplate activity assay; type: biochemical; conditions: 16 μg heart mitochondria per well; 240 ng rotenone (FIG. 27)
Description: In brief, 1 μg mAb RAC#24-20D1AB7 was added per well (50 μl of a 20 μg/ml solution in PBS) on a protein G-coated 96-well plate, incubated overnight at 4° C., then washed three times with PBS. Then, heart mitochondria solubilized in lauryl maltoside as previously described and diluted in PBS were added at 16 μg (♦), 8 μg (▪), 4 μg (▴) and 0 μg (●) per well in 50 μl aliquots and incubated at room temperature for 2 hours. The wells then were washed three times with 200 μl/well of 20 mM Tris/HCl, pH 7.5, 50 mM KCl, 0.015% lauryl maltoside. A phospholipid solution (see below) was added at 40 μl/well, incubated for 45 minutes at 4° C. and then 200 μl of assay solution (25 mM KPi pH 7.2, 5 mM MgCl2, 2 mM KCN, 260 μM NADH, and 200 μM UQ1) was added directly to the phospholipid solution. The oxidation of NADH was measured by following the decrease of the absorbance at 340 nm. Absorbance changes were measured at 340 nm with a Victor2 from Perkin Elmer for two hours.
The phospholipid stock solution was made by mixing 0.76 ml of 10 mg/ml egg-yolk phosphatidyl choline, 0.38 ml of 5 mg/ml egg-yolk phosphatidylethanolamine, and 0.1 ml of 5 mg/ml cardiolipin in round bottom flask. This mixture was dried under N2, resuspended in 4.25 ml buffer I (20 mM Tris/HCl pH 7.5, 50 mM KCl), and vortexed. […]

Complex I = Complex I (Homo sapiens, UniProt P49821+P56556); conditions: normal fibroblast Complex I; DPI in reaction buffer (FIG. 28)
Sequence of Complex I (P49821 21-464): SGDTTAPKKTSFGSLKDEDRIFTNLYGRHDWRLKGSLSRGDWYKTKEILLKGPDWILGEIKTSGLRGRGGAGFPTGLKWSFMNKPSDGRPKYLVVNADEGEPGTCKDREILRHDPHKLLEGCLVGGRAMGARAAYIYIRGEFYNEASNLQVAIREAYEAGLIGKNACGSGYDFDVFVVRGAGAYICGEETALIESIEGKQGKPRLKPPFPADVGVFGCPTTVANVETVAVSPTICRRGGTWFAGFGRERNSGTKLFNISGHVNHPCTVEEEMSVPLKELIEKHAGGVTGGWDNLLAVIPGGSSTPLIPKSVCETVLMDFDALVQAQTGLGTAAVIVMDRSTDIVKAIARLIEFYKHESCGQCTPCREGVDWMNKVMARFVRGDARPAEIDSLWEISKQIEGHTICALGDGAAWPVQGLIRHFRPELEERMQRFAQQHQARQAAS
Sequence of Complex I (P56556 whole entry): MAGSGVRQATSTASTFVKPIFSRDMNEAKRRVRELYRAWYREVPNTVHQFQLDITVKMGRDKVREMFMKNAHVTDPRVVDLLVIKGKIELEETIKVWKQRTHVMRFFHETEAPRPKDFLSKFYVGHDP
Description: as §1, §2
Complex I. The Complex I reaction buffer solution contained 0.1 mg/ml NADH, 2.5 mg/ml NBT in 2 mM Tris-HCl, pH 7.4. […]

[2] = system: human fibroblasts (cell strain MRC5); type: cell-based
Description: Normal, human fibroblasts (cell strain MRC5) were treated with DCC for five to seven population doublings. Complex IV subunit I in treated fibroblasts was detected immunocytochemically with mAb RAC#18-1D6E1A8 using standard protocols (Janes et al., J. Histochem. Cytochem., 52: 1011-1018, 2004; RAC#18-1D6E1A8 is commercially available from Molecular Probes, MitoScience, and Abcam). Subunit I levels were determined relative to mitochondrial mass measured by porin content (a mitochondrial outer membrane protein encoded by nuclear DNA). Porin content was also determined immunocytochemically using porin-specific mAb 31HL (available from Calbiochem). mtDNA depletion in DCC-treated fibroblasts was detected using real time PCR and FISH with a mtDNA probe in accordance with commonly used methods (see, Janes et al., J. Histochem. Cytochem., 52: 1011-1018, 2004).

human mtDNA polymerase γ = human mtDNA polymerase γ (Homo sapiens, UniProt P54098); conditions: cited from earlier work
Sequence of human mtDNA polymerase γ (P54098 whole entry): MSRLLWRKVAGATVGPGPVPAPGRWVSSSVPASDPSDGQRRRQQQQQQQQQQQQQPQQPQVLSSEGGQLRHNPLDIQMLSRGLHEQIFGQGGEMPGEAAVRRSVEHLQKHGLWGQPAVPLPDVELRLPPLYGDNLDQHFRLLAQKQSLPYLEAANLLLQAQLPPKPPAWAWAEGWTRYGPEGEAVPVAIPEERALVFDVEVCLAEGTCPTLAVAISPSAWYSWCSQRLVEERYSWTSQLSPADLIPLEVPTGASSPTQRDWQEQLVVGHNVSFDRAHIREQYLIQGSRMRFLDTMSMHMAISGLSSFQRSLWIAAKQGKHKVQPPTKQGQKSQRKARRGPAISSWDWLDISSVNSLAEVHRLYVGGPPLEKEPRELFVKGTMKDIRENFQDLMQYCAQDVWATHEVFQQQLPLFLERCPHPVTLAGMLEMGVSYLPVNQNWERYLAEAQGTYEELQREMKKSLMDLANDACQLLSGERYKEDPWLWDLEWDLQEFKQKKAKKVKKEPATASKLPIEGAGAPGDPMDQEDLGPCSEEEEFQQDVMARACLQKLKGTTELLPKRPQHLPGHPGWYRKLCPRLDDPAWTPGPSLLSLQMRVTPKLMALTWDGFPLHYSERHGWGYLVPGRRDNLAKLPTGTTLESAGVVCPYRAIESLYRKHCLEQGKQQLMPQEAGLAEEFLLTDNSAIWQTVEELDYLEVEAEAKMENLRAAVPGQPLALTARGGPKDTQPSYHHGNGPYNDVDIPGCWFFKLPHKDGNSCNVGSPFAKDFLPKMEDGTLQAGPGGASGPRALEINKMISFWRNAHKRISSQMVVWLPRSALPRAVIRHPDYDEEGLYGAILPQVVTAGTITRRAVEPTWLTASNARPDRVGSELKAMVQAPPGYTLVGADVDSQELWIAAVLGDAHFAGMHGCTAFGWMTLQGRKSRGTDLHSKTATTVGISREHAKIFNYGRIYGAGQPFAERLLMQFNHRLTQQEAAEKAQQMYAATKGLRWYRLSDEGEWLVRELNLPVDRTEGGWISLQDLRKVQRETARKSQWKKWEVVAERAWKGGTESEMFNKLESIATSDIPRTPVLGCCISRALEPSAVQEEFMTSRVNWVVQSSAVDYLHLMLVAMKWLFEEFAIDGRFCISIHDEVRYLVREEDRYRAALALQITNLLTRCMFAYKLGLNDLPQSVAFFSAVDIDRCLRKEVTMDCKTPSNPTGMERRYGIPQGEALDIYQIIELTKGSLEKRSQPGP

[3] = biological target: T1, Complex IV (cytochrome c oxidase) (Bos taurus, UniProt P00396); test: Complex IV (cytochrome c oxidase) activity, ferrocytochrome c oxidation at 550 nm; type: biochemical, bovine; conditions: mitochondrial membranes exposed to up to 1600 μM; membranes and isolated enzyme (FIG. 24A)
T1 construct: from tissue; host or cells: bovine heart mitochondria
Description: 4. Fe^3Fe^2+ Catalyzed Oxidation of Mitochondria. Mitochondria at 5 mg/mL in 25 mM KH2PO4 pH 7.2, 5 mM MgCl2 were incubated for 0, 0.5, 1, 2, or 4 hours with 1 mM FeCl3/25 mM sodium ascorbate. Incubation could not be performed for less than 0.5 h because iron could only be removed by rapid dialysis, which was performed for 30 min against 25 mM potassium phosphate pH 7.2, 5 mM MgCl2 using 12000 Da MWCO dialysis membrane (Spectrapor). After oxidation, mitochondrial membranes were subjected to the Complex IV activity assay described below. The Complex IV enzyme was then isolated by the immunocapture extraction method above.
5. Peroxynitrite Catalyzed Oxidation of Mitochondria. […] Following this oxidative treatment, Complex IV activity was measured before and after Complex IV immunocapture.
6. […] Potassium cyanide-sensitive Complex IV activity was measured in bovine heart mitochondria or with immunopurified isolated enzyme. […] Reduced bovine heart cytochrome c was purified over a Sephadex G-15 (Pharmacia) column equilibrated with assay buffer, collected in 1 mL fractions, and the concentration measured at 550 nm in a Beckman DU7. The oxidation of ferrocytochrome c was followed at 550 nm in a 1 mL reaction vessel in the DU7 or in a 96 well plate (Corning) using a Victor2 1460 multi-plate reader (Perkin-Elmer) with a narrow band pass 550 nm filter. […]

[4] = biological target: T2, C-V-IP (inhibitor protein IF1), human (UniProt Q9UII2)
T2 sequence: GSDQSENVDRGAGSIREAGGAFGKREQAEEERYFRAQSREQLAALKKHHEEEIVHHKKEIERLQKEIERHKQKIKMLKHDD

[5] = biological target: T3, recombinant human IF1, His-tagged (UniProt Q9UII2)
T3 sequence: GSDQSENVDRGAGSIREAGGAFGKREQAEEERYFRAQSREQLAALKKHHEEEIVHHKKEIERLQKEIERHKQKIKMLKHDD

[6] = system: human mitochondrial F1/F0 ATPase (Complex V); test: ATPase activity of immunocaptured F1/F0 ATPase, 96-well; type: biochemical
Description: Solubilization. Samples were thawed and placed in 25 mM HEPES pH 7.5 (to dissociate F1F0/IF1 interactions) or 10 mM […] (Anatrace) pH 6.5 (to retain F1F0/IF1 interactions), containing 0.4% (w/v) […], and the protease inhibitors leupeptin (0.5 μg/ml), pepstatin (0.5 μg/ml) and PMSF (1 mM). Mitochondria were solubilized at 5 mg/ml and whole cells were solubilized at 2×10^7 cells/ml. Samples were mixed well and then kept on ice for 30 minutes with occasional agitation. Insoluble material was then removed by centrifugation at 16,000×g for 20 minutes at 4° C.
Immunocapture. Assays were run in 96-well plates (Falcon Probind™) using 100 μl/well. […] To control for non-specific adsorption of ATPase, a non-specific mouse monoclonal antibody was used as a null capture mAb. Wells were then loaded with solubilized test samples diluted in TBS with 2.5% BSA, incubated for 2 hours at room temperature and then washed 4 times with TBS.
ATPase activity. ATPase reaction buffer (25 mM HEPES pH 7.5 or 10 mM MOPS pH 6.5, with 25 mM KCl, 5 mM MgCl2, 5 mM KCN and 2 mM ATP) was added at 100 μl/well and incubated for 3 hours at 37° C. The reaction was stopped and free Pi generated by ATP hydrolysis was detected essentially as described by Walker et al. (Meth. Enzymol., 260: 163-190, 1995) by addition of 0.5% ammonium molybendate in 0.7 M H2SO4 (42 μl/well) followed by 10% ascorbic acid (4 μl/well). After incubation for 30 minutes at room temperature to allow color development, absorbance was measured at 690 nm.
IF1 Stripping Conditions. IF1 was dissociated from previously immunocaptured IF1/F1F0 complexes by exposure to IF1 stripping buffer (30 mM Tris-sulfate pH 8, 250 mM KCl, 2 mM EDTA, 75 mM sucrose) for 30 minutes at 37° C. (Van Raaij et al., Biochem. 35: 15618-15625, 1996). The wells were then washed with either a pH 7.5 wash buffer (TBS) or a pH 6.5 wash buffer (10 mM MOPS pH 6.5, 150 mM NaCl and 1 mM MgCl2), and ATPase activity measured at either pH 7.5 or pH 6.5 as described above.
IF1 Addition Conditions. Recombinant human IF1 was obtained by PCR-based amplification of the appropriate gene from a human heart CDNA library (Clontech), cloning into pET15b (Novagen), transformation of E. coli and overexpression and purification of the His-tagged protein on a Ni column by standard protocols (Novagen). Isolated protein was diluted in pH 6.5 wash buffer (as described above) containing 1 mM ATP and incubated with previously immunocaptured F1F0. The wells were then washed with pH 6.5 wash buffer and ATPase activity measured at pH 6.5 as described above.

## [N-]=[N+]=[N-] [azide]
Complex IV
  inhibition of oxidase activity in the Complex IV capture zone: near complete inhibition

## C=C(C)[C@H]1Cc2c(ccc3c2O[C@@H]2COc4cc(OC)c(OC)cc4[C@@H]2C3=O)O1 [rotenone]
[1]
  fraction of immunocaptured NADH:UQ1 oxidoreductase activity sensitive to inhibition: approximately 30%

## c1ccc2c(c1)[I+]c1ccccc1-2 [DPI, diphenyleneiodonium]
Complex I
  effect on Complex I activity dipstick signal: reduced signal

## Nc1ccn([C@H]2CC[C@@H](CO)O2)c(=O)n1 [DDC, zalcitabine]
[2]
  depletion of mtDNA from fibroblasts: within three population doublings
Human mtDNA polymerase γ
  inhibition of isolated human mtDNA polymerase γ (hierarchy DDC≧DDI≧D4T≧3TC≧AZT≧ABV): inhibited most dramatically

## O=NOO [peroxynitrite]
[3]
  inhibition of Complex IV: ~50%

## Complex V (F1/F0 ATPase), human
[4]
  ATP hydrolysis activity: the enzyme could be greatly activated (>10-fold) by conditions that strip the IF1 from the protein
[5]
  ATP hydrolysis activity: addition of recombinant IF1, which reduced the rate of ATP hydrolysis to that before stripping

B1: recombinant IF1: His-tagged recombinant human inhibitor protein of F1/F0 ATPase expressed in E. coli (protein)
chain: GSDQSENVDRGAGSIREAGGAFGKREQAEEERYFRAQSREQLAALKKHHEEEIVHHKKEIERLQKEIERHKQKIKMLKHDD
modifications: left off: small tags and cut ends
[6]; 5 μg/ml (FIG. 9)
  effect on stripped F1/F0 ATPase from GM00028 and MRC5 cells: inhibited
[6]; human heart mitochondria, assayed at pH 6.5 (FIG. 6)
  effect on ATP hydrolysis of IF1-stripped immunocaptured F1/F0 ATPase: reduced the rate of ATP hydrolysis to that before stripping
